Measurements: PubChem BioAssay AID2060888 (Molecular Pharmacology Branch, DTP, NCI, 2025)

System: 695427-040-R-J1-PDC complex spheroid viability
Test: Anticancer human tumor 695427-040-R-J1-PDC patient-derived colon adenocarcinoma cell line growth inhibition [RAS]
Conditions: for IC50: curve of first compound; for viability, T/C: stronger effect = lower value
In short: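 Tumour cells grown as complex spheroids with HUVEC endothelial cells and mesenchymal stem cells, treated with RAS pathway inhibitor combinations. Each agent spans half-log steps from near clinical Cmax, or 10 microM where Cmax is unknown.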

[1] = second compound 0.0316 µM, first compound 0.0316 µM
[2] = second compound 0.0316 µM, first compound 0.1 µM
[3] = second compound 0.0316 µM, first compound 0.316 µM
[4] = second compound 0.0316 µM, first compound 1 µM
[5] = second compound 0.0316 µM, first compound 3.16 µM
[6] = second compound 0.0316 µM, first compound 10 µM
[7] = second compound 0.1 µM, first compound 0.0316 µM
[8] = second compound 0.1 µM, first compound 0.1 µM
[9] = second compound 0.1 µM, first compound 0.316 µM
[10] = second compound 0.1 µM, first compound 1 µM
[11] = second compound 0.1 µM, first compound 3.16 µM
[12] = second compound 0.1 µM, first compound 10 µM
[13] = second compound 0.316 µM, first compound 0.0316 µM
[14] = second compound 0.316 µM, first compound 0.1 µM
[15] = second compound 0.316 µM, first compound 0.316 µM
[16] = second compound 0.316 µM, first compound 1 µM
[17] = second compound 0.316 µM, first compound 3.16 µM
[18] = second compound 0.316 µM, first compound 10 µM
[19] = second compound 1 µM, first compound 0.0316 µM
[20] = second compound 1 µM, first compound 0.1 µM
[21] = second compound 1 µM, first compound 0.316 µM
[22] = second compound 1 µM, first compound 1 µM
[23] = second compound 1 µM, first compound 3.16 µM
[24] = second compound 1 µM, first compound 10 µM
[25] = second compound 3.16 µM, first compound 0.0316 µM
[26] = second compound 3.16 µM, first compound 0.1 µM
[27] = second compound 3.16 µM, first compound 0.316 µM
[28] = second compound 3.16 µM, first compound 1 µM
[29] = second compound 3.16 µM, first compound 3.16 µM
[30] = second compound 3.16 µM, first compound 10 µM
[31] = second compound 10 µM, first compound 0.0316 µM
[32] = second compound 10 µM, first compound 0.1 µM
[33] = second compound 10 µM, first compound 0.316 µM
[34] = second compound 10 µM, first compound 1 µM
[35] = second compound 10 µM, first compound 3.16 µM
[36] = second compound 10 µM, first compound 10 µM
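Also: viability read after seven days of drug exposure.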
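For viability, T/C in this document: 100% = DMSO vehicle control viability.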

Cc1nc(N2CCC3(CC2)COC(C)C3N)c(CO)nc1Sc1ccnc(N)c1Cl (stereo unspecified) + C#Cc1c(F)ccc2cc(O)cc(-c3ncc4c(N5CC6CCC(C5)N6)nc(OCC56CCCN5CC(F)C6)nc4c3F)c12
IC50 (second compound 0.0316 µM): > 10 µM | IC50 (second compound 0.1 µM): > 10 µM | IC50 (second compound 0.316 µM): 1.98 µM | IC50 (second compound 1 µM): 0.477 µM | IC50 (second compound 3.16 µM): 0.0363 µM | IC50 (second compound 10 µM): < 0.0316 µM | viability, T/C [1]: 92.3% | viability, T/C [2]: 80.5% | viability, T/C [3]: 70.7% | viability, T/C [4]: 75% | viability, T/C [5]: 70.5% | viability, T/C [6]: 51.1% | viability, T/C [7]: 89.2% | viability, T/C [8]: 78.1% | viability, T/C [9]: 79.2% | viability, T/C [10]: 60.9% | viability, T/C [11]: 60.2% | viability, T/C [12]: 51.9% | viability, T/C [13]: 78.7% | viability, T/C [14]: 66.2% | viability, T/C [15]: 56.7% | viability, T/C [16]: 57.1% | viability, T/C [17]: 50.5% | viability, T/C [18]: 39.2% | viability, T/C [19]: 65.8% | viability, T/C [20]: 63.2% | viability, T/C [21]: 51.2% | viability, T/C [22]: 42.1% | viability, T/C [23]: 40.4% | viability, T/C [24]: 26% | viability, T/C [25]: 51.3% | viability, T/C [26]: 44% | viability, T/C [27]: 38.1% | viability, T/C [28]: 32.6% | viability, T/C [29]: 23.5% | viability, T/C [30]: 16.2% | viability, T/C [31]: 33.2% | viability, T/C [32]: 27.7% | viability, T/C [33]: 27.3% | viability, T/C [34]: 18.6% | viability, T/C [35]: 15.8% | viability, T/C [36]: 10.3%

NC1c2ccccc2OC12CCN(c1cnc3c(N4CCCc5ncccc54)n[nH]c3n1)CC2 (stereo unspecified) + C#Cc1c(F)ccc2cc(O)cc(-c3ncc4c(N5CC6CCC(C5)N6)nc(OCC56CCCN5CC(F)C6)nc4c3F)c12
IC50 (second compound 0.0316 µM): 1.18 µM | IC50 (second compound 0.1 µM): 0.583 µM | IC50 (second compound 0.316 µM): 0.141 µM | IC50 (second compound 1 µM): 0.0508 µM | IC50 (second compound 3.16 µM): < 0.0316 µM | IC50 (second compound 10 µM): < 0.0316 µM | viability, T/C [1]: 69.6% | viability, T/C [2]: 65.6% | viability, T/C [3]: 57.4% | viability, T/C [4]: 50% | viability, T/C [5]: 45.2% | viability, T/C [6]: 33.6% | viability, T/C [7]: 69% | viability, T/C [8]: 61.8% | viability, T/C [9]: 55.9% | viability, T/C [10]: 45.1% | viability, T/C [11]: 34.9% | viability, T/C [12]: 23.5% | viability, T/C [13]: 66.8% | viability, T/C [14]: 52.1% | viability, T/C [15]: 40.8% | viability, T/C [16]: 31.9% | viability, T/C [17]: 25.5% | viability, T/C [18]: 12.8% | viability, T/C [19]: 55.8% | viability, T/C [20]: 40.9% | viability, T/C [21]: 33.6% | viability, T/C [22]: 25.7% | viability, T/C [23]: 15.8% | viability, T/C [24]: 8.19% | viability, T/C [25]: 39.6% | viability, T/C [26]: 27.4% | viability, T/C [27]: 23.4% | viability, T/C [28]: 15.9% | viability, T/C [29]: 12.2% | viability, T/C [30]: 5.36% | viability, T/C [31]: 23.9% | viability, T/C [32]: 18.9% | viability, T/C [33]: 10.8% | viability, T/C [34]: 7.6% | viability, T/C [35]: 4.71% | viability, T/C [36]: 1.43%

Nc1ccn(C2OC(CO)C(O)C2(F)F)c(=O)n1 (stereo unspecified) + C#Cc1c(F)ccc2cc(O)cc(-c3ncc4c(N5CC6CCC(C5)N6)nc(OCC56CCCN5CC(F)C6)nc4c3F)c12
IC50 (second compound 0.0316 µM): > 1 µM | IC50 (second compound 0.1 µM): > 1 µM | IC50 (second compound 0.316 µM): > 1 µM | IC50 (second compound 1 µM): > 1 µM | IC50 (second compound 3.16 µM): 0.0757 µM | IC50 (second compound 10 µM): < 0.00316 µM | viability, T/C (second compound 0.0316 µM, first compound 0.00316 µM): 83.8% | viability, T/C (second compound 0.0316 µM, first compound 0.01 µM): 82.2% | viability, T/C [1]: 75% | viability, T/C [2]: 75.7% | viability, T/C [3]: 76.8% | viability, T/C [4]: 70.8% | viability, T/C (second compound 0.1 µM, first compound 0.00316 µM): 87.7% | viability, T/C (second compound 0.1 µM, first compound 0.01 µM): 75.5% | viability, T/C [7]: 81.9% | viability, T/C [8]: 68.8% | viability, T/C [9]: 78.4% | viability, T/C [10]: 67.2% | viability, T/C (second compound 0.316 µM, first compound 0.00316 µM): 85.2% | viability, T/C (second compound 0.316 µM, first compound 0.01 µM): 79.4% | viability, T/C [13]: 66.7% | viability, T/C [14]: 72.3% | viability, T/C [15]: 67% | viability, T/C [16]: 60.5% | viability, T/C (second compound 1 µM, first compound 0.00316 µM): 68% | viability, T/C (second compound 1 µM, first compound 0.01 µM): 63.4% | viability, T/C [19]: 69.5% | viability, T/C [20]: 59.6% | viability, T/C [21]: 59.2% | viability, T/C [22]: 55.7% | viability, T/C (second compound 3.16 µM, first compound 0.00316 µM): 57.9% | viability, T/C (second compound 3.16 µM, first compound 0.01 µM): 62.4% | viability, T/C [25]: 48.9% | viability, T/C [26]: 45.4% | viability, T/C [27]: 50.8% | viability, T/C [28]: 44.7% | viability, T/C (second compound 10 µM, first compound 0.00316 µM): 37.3% | viability, T/C (second compound 10 µM, first compound 0.01 µM): 34.8% | viability, T/C [31]: 33.2% | viability, T/C [32]: 36.4% | viability, T/C [33]: 33.4% | viability, T/C [34]: 33%
